Like-named read-outs stand apart in the source and are kept apart here.
Key:
PVY = assay: Inactivating activity against PVY, half-leaf method on Chenopodium amaranticolor; format: in vivo, potato virus Y; details: Potato virus Y, in Chenopodium amaranticolor
Protocol: According to previous reports,[46] PVY was infested in Nicotiana tabacum K326, and PVY was harvested and purified after showing severe infection symptoms on the leaves. The literature-guided protocol was followed to assess the curative, prophylactic, and […] potential of the target compounds under investigation.[15]
Target compound solution (1,000 μg/mL) and 2 × virus solution were combined in equal quantities and incubated for 30 min. Evenly distribute emery onto the leaf blades, and apply the mixture of virus and compound solution onto the right side of C. amaranticolor leaf blades. Following this, an identical quantity of a 1× virus solution was applied to the untreated side of the leaf. Following a duration of 1.5 h, the emery residue present on the leaf surface was removed using a rinsing process utilizing water. The plants were incubated within a controlled greenhouse environment, maintaining a consistent temperature of 25°C. After 5−7 days, they proceeded to statistics the number of necrotic spots on the leaves. For each chemical, triplicate experiments were undertaken, and the average percentage of inhibition was subsequently determined.

[1] = Chenopodium amaranticolor leaves, read-out: EC50 for inactivating activity
[2] = inactivating activity, Table S1, read-out: Experimental pEC50 (converted)

SMILES	melting point [°C]	EC50 (PVY; [1]) [µg/mL]	EC50 (PVY; [2]) [µM]
CC1(C)C=Cc2c(ccc(/C=N/c3ccc(NS(=O)(=O)c4ccc(Cl)cc4Cl)cc3)c2O)O1 [Compound C31]	154 to 156	976 ± 20	1950
CCCCCCCCS(=O)(=O)Nc1ccc(/N=C/c2ccc3c(c2O)C=CC(C)(C)O3)cc1 [Compound C3]	94 to 96	605 ± 12.2	1290
CC1(C)C=Cc2c(ccc(/C=N/c3ccc(NS(=O)(=O)c4cccc(C(F)(F)F)c4)cc3)c2O)O1 [Compound C35]	123 to 125	803 ± 12.3	1600
CC1(C)C=Cc2c(ccc(/C=N/c3ccc(NS(=O)(=O)c4cc(Cl)ccc4Cl)cc3)c2O)O1 [Compound C14]	148 to 150	751 ± 19.4	1500
CC1(C)C=Cc2c(ccc(/C=N/c3ccc(NS(=O)(=O)c4ccc(OC(F)(F)F)cc4)cc3)c2O)O1 [Compound C30]	128 to 130	834 ± 18.3	1610
CC1(C)C=Cc2c(ccc(/C=N/c3ccc(NS(=O)(=O)c4cccs4)cc3)c2O)O1 [Compound C4]	148 to 150	667 ± 20.1	1520
CC1(C)C=Cc2c(ccc(/C=N/c3ccc(NS(=O)(=O)c4cccnc4)cc3)c2O)O1 [Compound C9]	150 to 152	310 ± 8.6	713
COc1ccc(S(=O)(=O)Nc2ccc(/N=C/c3ccc4c(c3O)C=CC(C)(C)O4)cc2)cc1 [Compound C1, (E) -N-(4-(((5-hydroxy-2,2-dimethyl-2H-chromen-6-yl)methylene)amino)phenyl) -4-methoxybenzenesulfonamide]	139 to 141	441 ± 5.2	951
CC1(C)C=Cc2c(ccc(/C=N/c3ccc(NS(=O)(=O)c4ccc(F)cc4)cc3)c2O)O1 [Compound C5]	144 to 146	165 ± 8.7	366
CC1(C)C=Cc2c(ccc(/C=N/c3ccc(NS(=O)(=O)c4ccc([N+](=O)[O-])cc4)cc3)c2O)O1 [Compound C12]	164 to 166	400 ± 7.5	836
Cc1cc(C)c(S(=O)(=O)Nc2ccc(/N=C/c3ccc4c(c3O)C=CC(C)(C)O4)cc2)c(C)c1 [Compound C19]	137 to 139	492 ± 11.2	1040
CC1(C)C=Cc2c(ccc(/C=N/c3ccc(NS(=O)(=O)c4ccc(C(C)(C)C)cc4)cc3)c2O)O1 [Compound C20]	142 to 144	1000	2050
CC1(C)C=Cc2c(ccc(/C=N/c3ccc(NS(=O)(=O)c4ccccc4Br)cc3)c2O)O1 [Compound C33]	170 to 172	139 ± 3.2	272
CC(C)=CCCC1(C)C=Cc2c(ccc(/C=N/c3ccc(NS(=O)(=O)c4ccc(Cl)cc4)cc3)c2O)O1 (stereo not drawn) [Compound C41]	115 to 117	781 ± 15.3	1460
CC(C)=CCCC1(C)C=Cc2c(ccc(/C=N/c3ccc(NS(=O)(=O)c4ccc(C(F)(F)F)cc4)cc3)c2O)O1 (stereo not drawn) [Compound C46]	130 to 132	522 ± 8.1	916
CC1(C)C=Cc2c(ccc(/C=N/c3ccc(NS(=O)(=O)c4cc(F)ccc4F)cc3)c2O)O1 [Compound C15]	180 to 182	903 ± 14.3	1920
CC1(C)C=Cc2c(ccc(/C=N/c3ccc(NS(=O)(=O)c4ccc(C(F)(F)F)cc4)cc3)c2O)O1 [Compound C2]	132 to 134	255.7 ± 0.72	509
CCc1ccc(S(=O)(=O)Nc2ccc(/N=C/c3ccc4c(c3O)C=CC(C)(C)O4)cc2)cc1 [Compound C18]	121 to 123	202 ± 3.8	438
CC1(C)C=Cc2c(ccc(/C=N/c3ccc(NS(=O)(=O)c4cccc(C#N)c4)cc3)c2O)O1 [Compound C11]	152 to 154	703 ± 25.3	1530

Results, then the compound that gave them:

melting point [°C]	EC50 (PVY; [1]) [µg/mL]	EC50 (PVY; [2]) [µM]	SMILES
147 to 149	531 ± 20.7	1330	CC1(C)C=Cc2c(ccc(/C=N/c3ccc(NS(=O)(=O)C4CC4)cc3)c2O)O1 [Compound C13]
161 to 163	1020	2080	CC(=O)Nc1ccc(S(=O)(=O)Nc2ccc(/N=C/c3ccc4c(c3O)C=CC(C)(C)O4)cc2)cc1 [Compound C21]
97 to 99	512 ± 11	944	CC(C)=CCCC1(C)C=Cc2c(ccc(/C=N/c3ccc(NS(=O)(=O)c4ccc(Cl)s4)cc3)c2O)O1 (stereo not drawn) [Compound C43]
84 to 86	882 ± 17.3	1710	CC(C)=CCCC1(C)C=Cc2c(ccc(/C=N/c3ccc(NS(=O)(=O)c4cccc(C)c4)cc3)c2O)O1 (stereo not drawn) [Compound C44]
130 to 132	587 ± 9.9	1170	CC1(C)C=Cc2c(ccc(/C=N/c3ccc(NS(=O)(=O)c4ccccc4C(F)(F)F)cc3)c2O)O1 [Compound C22]
138 to 140	717 ± 17.8	1330	CC(C)=CCCC1(C)C=Cc2c(ccc(/C=N/c3ccc(NS(=O)(=O)c4cc(F)cc(F)c4)cc3)c2O)O1 (stereo not drawn) [Compound C48]
166 to 168	244 ± 10.2	521	CC1(C)C=Cc2c(ccc(/C=N/c3ccc(NS(=O)(=O)c4ccccc4Cl)cc3)c2O)O1 [Compound C25]
186 to 188	204 ± 7.1	402	CC1(C)C=Cc2c(ccc(C=Nc3ccc(NS(=O)(=O)CC45CCC(CC4=O)C5(C)C)cc3)c2O)O1 (stereo not drawn) [Compound C40]
113 to 115	516 ± 9	991	CC(C)=CCCC1(C)C=Cc2c(ccc(/C=N/c3ccc(NS(=O)(=O)c4cccc(F)c4)cc3)c2O)O1 (stereo not drawn) [Compound C45]
80 to 82	630 ± 11.2	1170	CC(C)=CCCC1(C)C=Cc2c(ccc(/C=N/c3ccc(NS(=O)(=O)c4c(F)cccc4F)cc3)c2O)O1 (stereo not drawn) [Compound C47]
75 to 77	553 ± 9.3	944	CC(C)=CCCC1(C)C=Cc2c(ccc(/C=N/c3ccc(NS(=O)(=O)c4ccc(Br)s4)cc3)c2O)O1 (stereo not drawn) [Compound C49]
134 to 136	168 ± 4.8	388	CC1(C)C=Cc2c(ccc(/C=N/c3ccc(NS(=O)(=O)c4ccccc4)cc3)c2O)O1 [Compound C17]
175 to 177	369 ± 9.9	667	CC1(C)C=Cc2c(ccc(/C=N/c3ccc(NS(=O)(=O)c4ccccc4F)cc3)c2O)O1 [Compound C8]
195 to 197	397.1 ± 2.3	877	Cc1noc(C)c1S(=O)(=O)Nc1ccc(/N=C/c2ccc3c(c2O)C=CC(C)(C)O3)cc1 [Compound C39]
211 to 213	871 ± 17.3	1730	CC1(C)C=Cc2c(ccc(/C=N/c3ccc(NS(=O)(=O)c4cc(Cl)cc(Cl)c4)cc3)c2O)O1 [Compound C23]
